Source: patent publication US12371428B2 (Exelixis, Inc., priority 2019, dated 2025)

Legend:
Type in all cases: cell-based
[1] = biological target: Met (phospho-Met, HGF-stimulated PC-3 prostate cancer cells) (Homo sapiens (Human), UniProt P08581); assay: Met autophosphorylation ELISA in PC-3 cells (Example F); conditions: cellular activity; Met autophosphorylation ELISA in PC-3 cells; read-out: c-Met IC50
Method: PC-3 prostate cancer cells (ATCC #CRL-1435) were seeded at 4×10^4 cells/well onto 24-well plates (Greiner #662165), in DMEM (Thermo Fisher #11995-040) containing 10% FBS (Thermo Fisher #26140-079), 1% MEM NEAA (Thermo Fisher #11140-050), 1% GlutaMax (Thermo Fisher #35050-061), and 1% Penicillin Streptomycin (Thermo Fisher #15140-122). PC-3 cells were incubated at 37° C., 5% CO2 for 24 h and then starved for 3 h in serum-free medium. Test compounds were serially diluted to produce an 8-point dose curve in fresh serum-free medium to a final concentration of 0.3% DMSO (vehicle) and added to the cells and incubated for 1 h. Cells were then stimulated with 100 ng/mL recombinant human HGF (R&D Systems #294-HG-250) for 10 min, washed with cold PBS, and immediately lysed with […] of cold 1× lysis buffer [20 mM Tris, 137 mM sodium chloride, 2 mM EDTA, 10% glycerol, 1% NP-40 alternative, 1 mM activated sodium orthovanadate, 1 mM PefaBloc SC (Sigma-Aldrich #11429868001), protease/phosphatase inhibitor tablet (Thermo Fisher #A32959)]. Lysates were clarified by centrifugation and 100 μL/well added into the PathScan phospho-Met (panTyr) Sandwich ELISA (Cell Signaling Technology #7333). Assay was performed according to manufacturer's instructions. Positive control wells (100% activity) contained HGF-stimulated, DMSO-treated cell lysates. Negative control wells (0% activity) contained HGF-stimulated, reference inhibitor-treated cell lysates. IC50 values were calculated by nonlinear regression analysis using a 4-parameter logistic curve fit in ActivityBase XE (IDBS).

[2] = biological target: KDR (phospho-KDR, VEGF165-stimulated HUVEC cells) (Homo sapiens (Human), UniProt P35968); assay: KDR autophosphorylation ELISA in HUVEC cells (Example G); conditions: cellular activity; KDR autophosphorylation ELISA in HUVEC cells
Method: Human umbilical vein endothelial cells or HUVEC (Lonza #C2519A) were seeded at 2×10^4 cells/well onto 96-well plates (Corning #3904), in EGM-2 growth medium (Lonza #CC-3162) containing 1% Penicillin Streptomycin (Thermo Fisher #15140-122). HUVEC cells were incubated at 37° C., 5% CO2 for 24 h and then starved for 24 h in serum-free EBM-2 basal medium (Lonza #CC-3156) containing 1% Penicillin Streptomycin. Test compounds were serially diluted to produce an 8-point dose curve in fresh serum-free medium to a final concentration of 0.3% DMSO (vehicle) and added to the cells and incubated for 1 h. Cells were then stimulated with 100 ng/mL recombinant human VEGF165 (R&D Systems #293-VE-500) for 5 min, washed with cold PBS, and immediately lysed with […] of cold 1× lysis buffer [20 mM Tris, 137 mM sodium chloride, 2 mM EDTA, 10% glycerol, 1% NP-40 alternative, 1 mM activated sodium orthovanadate, 1 mM PefaBloc SC (Sigma-Aldrich #11429868001), protease/phosphatase inhibitor tablet (Thermo Fisher #A32959)]. Lysates were collected and 100 μL/well added into the human phospho-KDR DuoSet IC ELISA (R&D Systems #DYC1766-2). Assay was performed according to manufacturer's instructions and sample phospho-KDR concentrations were extrapolated using human phospho-KDR control (R&D Systems #841421) as a standard. Positive control wells (100% activity) contained VEGF165-stimulated, DMSO-treated cell lysates. Negative control wells (0% activity) contained non-stimulated cell lysates. IC50 values were calculated by nonlinear regression analysis using a 4-parameter logistic curve fit in ActivityBase XE (IDBS).

[3] = biological target: Mer (phospho-Mer, MERTK-transfected 293A cells) (Homo sapiens (Human), UniProt Q12866); assay: Mer autophosphorylation ELISA in transient transfected 293A cells (Example H); conditions: cellular activity; Mer autophosphorylation ELISA in transient transfected 293A cells
Method: 293A cells (Thermo Fisher #R70507) were seeded at 1.5×10^6 cells/well onto 100 mm dish (Greiner #664169), in DMEM (Thermo Fisher #11995-040) containing 10% FBS (Thermo Fisher #26140-079), 1% MEM NEAA (Thermo Fisher #11140-050), 1% GlutaMax (Thermo Fisher #35050-061), and 1% Penicillin Streptomycin (Thermo Fisher #15140-122). 293A cells were incubated at 37° C., 5% CO2 for 24 h and then transfected with […] MERTK DNA (Genecopoeia #EX-Z8208-M02) using TransIT LT1 transfection reagent (Mirus-Bio #MIR2305). After 24 h incubation, the transfected 293A cells were seeded at 1×10^5 cells/well onto 96-well plates (Corning #3904) in DMEM growth medium overnight. Test compounds were serially diluted to produce an 8-point dose curve in fresh serum-free medium to a final concentration of 0.3% DMSO (vehicle) and added to the cells and incubated for 1 h. Cells were then immediately lysed with 150 μL of cold 1× lysis buffer [20 mM Tris, 137 mM sodium chloride, 2 mM EDTA, 10% glycerol, 1% NP-40 alternative, 1 mM activated sodium orthovanadate, 1 mM PefaBloc SC (Sigma-Aldrich #11429868001), protease/phosphatase inhibitor tablet (Thermo Fisher #A32959)]. Lysates were clarified by centrifugation and 50 µL/well added in to the human phospho-Mer DuoSet IC ELISA (R&D Systems #DYC2579-2). Assay was performed according to manufacturer's instructions and sample phospho-Mer concentrations were extrapolated using human phospho-Mer control (R&D Systems #841793) as a standard. Positive control wells (100% activity) contained DMSO-treated cell lysates. Negative control wells (0% activity) contained reference inhibitor-treated cell lysates. IC50 values were calculated by nonlinear regression analysis using a 4-parameter logistic curve fit in ActivityBase XE (JDBS).

Chain of Met (phospho-Met, HGF-stimulated PC-3 prostate cancer cells) (P08581 25-1390): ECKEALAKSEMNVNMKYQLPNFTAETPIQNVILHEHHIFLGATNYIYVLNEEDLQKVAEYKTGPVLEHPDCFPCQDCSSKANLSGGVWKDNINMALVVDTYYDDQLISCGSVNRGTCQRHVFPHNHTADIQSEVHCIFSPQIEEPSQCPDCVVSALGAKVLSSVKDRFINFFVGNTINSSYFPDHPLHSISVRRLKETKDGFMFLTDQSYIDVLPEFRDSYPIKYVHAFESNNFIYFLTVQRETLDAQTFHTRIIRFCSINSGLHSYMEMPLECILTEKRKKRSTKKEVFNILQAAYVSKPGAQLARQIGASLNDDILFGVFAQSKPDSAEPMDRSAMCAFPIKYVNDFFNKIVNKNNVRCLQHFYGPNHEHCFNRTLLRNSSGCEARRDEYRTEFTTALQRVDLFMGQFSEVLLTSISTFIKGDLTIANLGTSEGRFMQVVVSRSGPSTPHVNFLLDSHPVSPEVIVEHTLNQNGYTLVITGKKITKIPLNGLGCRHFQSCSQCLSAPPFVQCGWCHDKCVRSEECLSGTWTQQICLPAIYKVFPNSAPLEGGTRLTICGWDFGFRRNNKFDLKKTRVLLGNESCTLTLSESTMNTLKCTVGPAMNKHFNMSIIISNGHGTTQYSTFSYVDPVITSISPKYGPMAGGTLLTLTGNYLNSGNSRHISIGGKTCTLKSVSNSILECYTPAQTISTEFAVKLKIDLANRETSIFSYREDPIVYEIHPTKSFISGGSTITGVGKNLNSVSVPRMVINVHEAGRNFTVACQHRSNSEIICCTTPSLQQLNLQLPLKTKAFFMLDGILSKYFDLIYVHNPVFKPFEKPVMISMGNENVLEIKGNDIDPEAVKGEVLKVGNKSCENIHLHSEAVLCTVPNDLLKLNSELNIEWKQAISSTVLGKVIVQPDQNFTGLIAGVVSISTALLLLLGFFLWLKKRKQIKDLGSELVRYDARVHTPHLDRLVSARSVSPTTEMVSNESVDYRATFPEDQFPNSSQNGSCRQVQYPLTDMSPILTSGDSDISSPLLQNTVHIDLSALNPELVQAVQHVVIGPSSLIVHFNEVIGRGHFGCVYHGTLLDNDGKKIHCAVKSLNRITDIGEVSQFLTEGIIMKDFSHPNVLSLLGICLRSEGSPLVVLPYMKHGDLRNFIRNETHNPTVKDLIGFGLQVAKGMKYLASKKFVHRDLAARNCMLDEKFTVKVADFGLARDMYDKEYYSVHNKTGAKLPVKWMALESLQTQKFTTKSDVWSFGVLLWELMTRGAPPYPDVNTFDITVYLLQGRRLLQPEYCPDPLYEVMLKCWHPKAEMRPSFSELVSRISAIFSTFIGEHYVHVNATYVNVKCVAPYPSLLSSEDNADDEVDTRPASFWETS
Chain of KDR (phospho-KDR, VEGF165-stimulated HUVEC cells) (P35968 20-1356): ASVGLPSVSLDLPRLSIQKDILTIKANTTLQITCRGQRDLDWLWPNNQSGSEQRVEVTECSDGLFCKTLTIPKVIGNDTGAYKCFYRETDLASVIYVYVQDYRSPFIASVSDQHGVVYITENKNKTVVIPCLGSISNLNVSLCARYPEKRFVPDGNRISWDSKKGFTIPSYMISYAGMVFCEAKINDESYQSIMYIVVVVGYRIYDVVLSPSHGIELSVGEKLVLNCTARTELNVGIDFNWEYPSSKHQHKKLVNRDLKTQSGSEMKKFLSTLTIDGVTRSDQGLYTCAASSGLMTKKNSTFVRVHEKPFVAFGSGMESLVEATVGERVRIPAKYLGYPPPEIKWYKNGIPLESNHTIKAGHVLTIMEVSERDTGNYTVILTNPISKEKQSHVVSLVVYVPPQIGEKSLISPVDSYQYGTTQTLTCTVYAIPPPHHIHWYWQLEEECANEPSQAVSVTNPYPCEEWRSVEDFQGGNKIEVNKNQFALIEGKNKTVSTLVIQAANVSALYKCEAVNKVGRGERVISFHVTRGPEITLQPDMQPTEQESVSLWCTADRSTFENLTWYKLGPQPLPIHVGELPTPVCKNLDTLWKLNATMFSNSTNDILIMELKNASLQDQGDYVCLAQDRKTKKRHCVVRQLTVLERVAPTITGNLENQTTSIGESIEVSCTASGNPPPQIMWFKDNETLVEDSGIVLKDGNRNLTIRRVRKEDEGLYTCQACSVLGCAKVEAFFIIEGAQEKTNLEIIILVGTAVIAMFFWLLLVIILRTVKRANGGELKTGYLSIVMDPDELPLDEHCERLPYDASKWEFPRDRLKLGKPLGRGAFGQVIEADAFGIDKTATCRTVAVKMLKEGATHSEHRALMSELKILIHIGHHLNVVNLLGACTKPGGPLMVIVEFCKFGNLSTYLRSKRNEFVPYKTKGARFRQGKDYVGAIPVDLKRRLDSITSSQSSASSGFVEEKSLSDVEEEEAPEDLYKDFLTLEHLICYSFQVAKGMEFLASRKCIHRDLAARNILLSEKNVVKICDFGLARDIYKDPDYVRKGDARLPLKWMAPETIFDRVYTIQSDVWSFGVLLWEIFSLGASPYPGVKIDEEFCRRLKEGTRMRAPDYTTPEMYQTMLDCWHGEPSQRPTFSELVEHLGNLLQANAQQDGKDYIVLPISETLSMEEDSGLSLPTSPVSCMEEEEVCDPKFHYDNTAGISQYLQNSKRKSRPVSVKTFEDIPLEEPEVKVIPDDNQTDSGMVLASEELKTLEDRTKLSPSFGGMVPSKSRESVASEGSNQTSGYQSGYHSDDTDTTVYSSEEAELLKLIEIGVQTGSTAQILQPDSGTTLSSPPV
Chain of Mer (phospho-Mer, MERTK-transfected 293A cells) (Q12866 21-999): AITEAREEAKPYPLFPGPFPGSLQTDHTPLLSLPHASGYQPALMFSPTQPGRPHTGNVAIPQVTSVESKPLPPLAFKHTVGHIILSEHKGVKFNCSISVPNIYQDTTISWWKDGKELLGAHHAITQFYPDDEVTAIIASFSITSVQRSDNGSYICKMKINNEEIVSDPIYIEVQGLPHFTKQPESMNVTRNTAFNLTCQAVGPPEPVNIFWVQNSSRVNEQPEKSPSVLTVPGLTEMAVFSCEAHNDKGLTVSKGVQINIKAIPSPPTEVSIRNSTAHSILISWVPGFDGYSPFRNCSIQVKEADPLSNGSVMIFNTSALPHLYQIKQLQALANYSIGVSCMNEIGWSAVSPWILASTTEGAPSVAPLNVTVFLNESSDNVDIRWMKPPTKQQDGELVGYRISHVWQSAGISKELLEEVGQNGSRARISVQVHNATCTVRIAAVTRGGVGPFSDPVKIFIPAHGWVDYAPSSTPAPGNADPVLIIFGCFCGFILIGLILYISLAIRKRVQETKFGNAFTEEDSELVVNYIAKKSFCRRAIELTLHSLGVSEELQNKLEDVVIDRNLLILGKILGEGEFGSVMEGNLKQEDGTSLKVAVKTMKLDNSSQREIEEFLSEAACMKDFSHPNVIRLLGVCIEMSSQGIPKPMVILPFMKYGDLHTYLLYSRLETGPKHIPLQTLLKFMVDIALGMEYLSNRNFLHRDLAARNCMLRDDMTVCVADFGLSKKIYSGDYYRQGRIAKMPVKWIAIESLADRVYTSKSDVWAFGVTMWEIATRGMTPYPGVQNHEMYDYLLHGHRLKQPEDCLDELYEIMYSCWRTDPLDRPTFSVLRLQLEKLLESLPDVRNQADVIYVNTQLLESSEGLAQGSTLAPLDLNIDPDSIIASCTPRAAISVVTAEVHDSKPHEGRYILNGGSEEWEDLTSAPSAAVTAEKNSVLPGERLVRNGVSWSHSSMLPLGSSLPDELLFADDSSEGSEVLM

SMILES | IC50 [1] [nM] | IC50 [2] [nM] | IC50 [3] [nM]
COc1cc2nccc(Oc3ccc(NC(=O)c4cc(C(C)=O)c(C)n(-c5ccc(F)cc5C)c4=O)cc3F)c2nc1OC [Compound 720, 5-acetyl-N-[4-[(6,7-dimethoxy-1,5-naphthyridin-4-yl)oxy]-3-fluorophenyl]-1-(4-fluoro-2-methylphenyl)-6-methyl-2-oxopyridine-3-carboxamide] | < 100 | > 300 | < 100
COc1cc2nccc(Oc3ccc(NC(=O)c4c(C)n(CC(F)(F)F)cc(-c5ccc(F)cc5)c4=O)cc3F)c2nc1OC [Compound 727, N-[4-[(6,7-dimethoxy-1,5-naphthyridin-4-yl)oxy]-3-fluorophenyl]-5-(4-fluorophenyl)-2-methyl-4-oxo-1-(2,2,2-trifluoroethyl)pyridine-3-carboxamide] | < 100 | 100 to 300 | < 100
COc1cc2nccc(Oc3ccc(NC(=O)c4c(C)n(C(F)F)cc(-c5ccc(F)cc5)c4=O)cc3F)c2nc1OC [Compound 729, 1-(difluoromethyl)-N-[4-[(6,7-dimethoxy-1,5-naphthyridin-4-yl)oxy]-3-fluorophenyl]-5-(4-fluorophenyl)-2-methyl-4-oxopyridine-3-carboxamide] | < 100 | < 100 | < 100
COc1cc2nccc(Oc3ccc(NC(=O)c4c(C)c(C)c(C)n(-c5ccccc5)c4=O)cc3F)c2nc1OC [Compound 755, N-[4-[(6,7-dimethoxy-1,5-naphthyridin-4-yl)oxy]-3-fluorophenyl]-4,5,6-trimethyl-2-oxo-1-phenylpyridine-3-carboxamide] | < 100 | 100 to 300 | < 100
COc1cc2nccc(Oc3ccc(NC(=O)c4c(C)n(CCF)cc(-c5ccc(F)cc5C)c4=O)cc3F)c2nc1OC [Compound 756, N-[4-[(6,7-dimethoxy-1,5-naphthyridin-4-yl)oxy]-3-fluorophenyl]-1-(2-fluoroethyl)-5-(4-fluoro-2-methylphenyl)-2-methyl-4-oxopyridine-3-carboxamide] | < 100 | < 100 | < 100
CCOc1ccn(-c2ccc(F)cc2)c(=O)c1C(=O)Nc1ccc(Oc2ccnc3nc(OC)c(OCCOC)cc23)c(F)c1 [Compound 761, 4-ethoxy-N-[3-fluoro-4-[[7-methoxy-6-(2-methoxyethoxy)-1,8-naphthyridin-4-yl]oxy]phenyl]-1-(4-fluorophenyl)-2-oxopyridine-3-carboxamide] | < 100 | > 300 | < 100
COc1cc2nccc(Oc3ccc(NC(=O)c4cnc(C)c(-c5ccc(F)cc5)n4)cc3F)c2nc1OC [Compound 764, N-[4-[(6,7-dimethoxy-1,5-naphthyridin-4-yl)oxy]-3-fluorophenyl]-6-(4-fluorophenyl)-5-methylpyrazine-2-carboxamide] | < 100 | > 300 | < 100
COc1cc2nccc(Oc3ccc(NC(=O)c4c5n(c(C)c(-c6ccc(F)cc6)c4=O)CCOC5)cc3F)c2nc1OC [Compound 775, N-[4-[(6,7-dimethoxy-1,5-naphthyridin-4-yl)oxy]-3-fluorophenyl]-7-(4-fluorophenyl)-6-methyl-8-oxo-3,4-dihydro-1H-pyrido[2,1-c][1,4]oxazine-9-carboxamide] | < 100 | < 100 | < 100
COc1cc2nccc(Oc3ccc(NC(=O)c4nn(CC(F)F)c(C)c(-c5ccc(F)cc5)c4=O)cc3)c2nc1OC [Compound 776, 1-(2,2-difluoroethyl)-N-[4-[(6,7-dimethoxy-1,5-naphthyridin-4-yl)oxy]phenyl]-5-(4-fluorophenyl)-6-methyl-4-oxopyridazine-3-carboxamide] | < 100 | > 300 | < 100

Second part, the compound after the results:

IC50 [1] [nM] | IC50 [2] [nM] | IC50 [3] [nM] | SMILES
< 100 | < 100 | < 100 | COc1cnc2c(Oc3ccc(NC(=O)c4c(C)ncc(-c5ccc(F)cc5C)c4O)cc3F)ccnc2c1 [Compound 719, N-[3-fluoro-4-[(7-methoxy-1,5-naphthyridin-4-yl)oxy]phenyl]-5-(4-fluoro-2-methylphenyl)-4-hydroxy-2-methylpyridine-3-carboxamide]
< 100 | < 100 | < 100 | COc1cnc2c(Oc3c(F)cc(NC(=O)c4c(C)nc(C)c(-c5ccc(F)cc5C)c4O)c(F)c3F)ccnc2c1 [Compound 768, 5-(4-fluoro-2-methylphenyl)-4-hydroxy-2,6-dimethyl-N-[2,3,5-trifluoro-4-[(7-methoxy-1,5-naphthyridin-4-yl)oxy]phenyl]pyridine-3-carboxamide]
< 100 | < 100 | < 100 | COc1cc2nccc(Oc3ccc(NC(=O)c4c(C)nnc(-c5ccc(F)cc5C)c4OC)cc3F)c2nc1OC [Compound 773, N-[4-[(6,7-dimethoxy-1,5-naphthyridin-4-yl)oxy]-3-fluorophenyl]-6-(4-fluoro-2-methylphenyl)-5-methoxy-3-methylpyridazine-4-carboxamide]
< 100 | < 100 | < 100 | COc1cc2nccc(Oc3cc(F)c(NC(=O)c4c(C)nc(C)c(-c5ccc(F)cc5F)c4O)cc3F)c2nc1OC [Compound 777, 5-(2,4-difluorophenyl)-N-[4-[(6,7-dimethoxy-1,5-naphthyridin-4-yl)oxy]-2,5-difluorophenyl]-4-hydroxy-2,6-dimethylpyridine-3-carboxamide]
< 100 | < 100 | < 100 | COCc1nc(C)c(-c2ccc(F)cc2F)c(O)c1C(=O)Nc1cc(F)c(Oc2ccnc3cc(OC)c(OC)nc23)cc1F [Compound 778, 5-(2,4-difluorophenyl)-N-[4-[(6,7-dimethoxy-1,5-naphthyridin-4-yl)oxy]-2,5-difluorophenyl]-4-hydroxy-2-(methoxymethyl)-6-methylpyridine-3-carboxamide]
< 100 | < 100 | < 100 | COc1cnc2c(Oc3cc(F)c(NC(=O)c4c(C)nc(C)c(-c5ccc(F)cc5F)c4O)cc3F)ccnc2c1 [Compound 779, N-[2,5-difluoro-4-[(7-methoxy-1,5-naphthyridin-4-yl)oxy]phenyl]-5-(2,4-difluorophenyl)-4-hydroxy-2,6-dimethylpyridine-3-carboxamide]
